In US20220409727A1, “Metal Complexes Bearing Bisstyryl-Bipyridine Ligand and Their Use as Photosensitizer Agent in One and Two-Photon Photodynamic Therapy” (Paris Sciences et Lettres, priority 2019, published 2022):
Where two headings read alike, the source gives them in different places.

Columns and labels:
[1] = Luminescence quantum yield measurements; format: physicochemical; set-up: key: fraction, relative to [Ru(bipy)3]Cl2 reference in CH3CN (Φem=5.9%); conditions: CH3CN, room temperature, excitation at 355 nm
Procedure: For the determination of the luminescence quantum yield, the samples were prepared in an CH3CN solution with an absorbance of 0.1 at 355 nm. This solution was irradiated in fluorescence quartz cuvettes (width 1 cm) using a NT342B Nd-YAG pumped optical parametric oscillator (Ekspla) at 355 nm. The emission signal was focused and collected at right angle to the excitation pathway and directed to a Princeton Instruments Acton SP-2300i monochromator. As a detector a XPI-Max 4 CCD camera (Princeton Instruments) has been used. The luminescence quantum yields were determined by comparison with the reference [Ru(bipy)3]Cl2 in CH3CN (Φem=5.9%) (Nakamaru, K., 1982) applying the following formula:
Φem, sample=Φem, reference*(Freference/Fsample)*(Isample/Ireference)*(nsample/nreference)^2
Φem=luminescence quantum yield, F=fraction of light absorbed, I=integrated emission intensities, n=refractive index, A=absorbance of the sample at irradiation wavelength.

[2] = tested on: human glioblastoma astrocytoma (U373) cells
[3] = tested on: human glioblastoma astrocytoma (U373) cells; test: (Photo-)cytotoxicity on 2D cell monolayers, resazurin assay, U373; conditions: for PI (480 nm): U373, dark vs 480 nm (10 min, 3.1 J/cm^2); for PI (540 nm): U373, dark vs 540 nm (40 min, 9.5 J/cm^2); for IC50: compounds 1-3 as chloride salts
[4] = tested on: non-cancerous retinal pigment epithelium (RPE-1) cells; test: (Photo-)cytotoxicity on 2D cell monolayers, resazurin assay, RPE-1; conditions: for PI (480 nm): RPE-1, dark vs 480 nm (10 min, 3.1 J/cm^2); for PI (540 nm): RPE-1, dark vs 540 nm (40 min, 9.5 J/cm^2);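 as to all read-outs here: cells exposed to compound 4 h, medium exchanged, then irradiated or kept dark, 44 h further growth, viability by resorufin fluorescence (ex 540 nm, em 590 nm)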
[5] = Emission measurement in CH3CN; format: physicochemical; conditions: room temperature, excitation at 355 nm
Procedure: The absorption of the samples was measured with a SpectraMax M2 Spectrometer (Molecular Devices). The emission was measured by irradiation of the sample in fluorescence quartz cuvettes (width 1 cm) using a NT342B Nd-YAG pumped optical parametric oscillator (Ekspla) at 355 nm. Luminescence was focused and collected at right angle to the excitation pathway and directed to a Princeton Instruments Acton SP-2300i monochromator. As a detector, a XPI-Max 4 CCD camera (Princeton Instruments) has been used.

[6] = tested on: human cervical carcinoma (HeLa) cells; test: (Photo-)cytotoxicity on 2D cell monolayers, resazurin assay, HeLa; format: cell-based; conditions: for PI (480 nm): dark vs 480 nm (10 min, 3.1 J/cm^2); for PI (540 nm): dark vs 540 nm (40 min, 9.5 J/cm^2)
Source text: Before an experiment, the cells were passaged three times.

HeLa MCTS = test: (Photo-)cytotoxicity on 3D multicellular tumor spheroids (ATP, CellTiter-Glo 3D); format: cell-based, human; conditions: for PI (1-Photon): dark vs 1-Photon irradiation (500 nm, 10 J/cm^2); for PI (2-Photon): dark vs 2-Photon irradiation (800 nm, 10 J/cm^2); for phototoxicity in HeLa MCTS: 1 Photon and 2 Photons irradiation, compared with compounds 4-6, 8, 10
Procedure: autoclave. The hot emulsion was transferred into wells (50 μL per well) of a 96 cell culture well plate. The plates were exposed for 3 h to UV irradiation to ensure the sterility and allow the agarose solution to cool down. After this time, the agarose was overlayed with a HeLa cell suspension at a density of 3000 cells per well in 150 μL of media. The MCTS were cultivated and maintained at 37° C. in a cell culture incubator at 37° C. with 5% CO2 atmosphere. The culture media was replaced every two days. Within two-three days MCTs were formed from the cell suspension. The formation as well as integrity, diameter and volume of the MCTs was monitored by an Axio Observer Z1 (Carl Zeiss) phase contrast microscope. The volume was calculated using the following formula: V=4/3πr^3. The luminescence images along the z-axis were captured by a one-(λex=458 nm, λem=600-750 nm) or two-photon (λex=800 nm, λem=600-750 nm) excitation in the z-stack mode with a an LSM 880 (Carl Zeiss) laser scanning confocal microscope equipped with Argon and a Coherent Chameleon 2-Photon laser and a GaAsP detector.
The cytotoxicity of the compounds in 3D multicellular tumor spheroids (MCTS) was assessed by measurement of the ATP concentration. MCTS were treated with increasing concentrations of the compound (2% DMSO, v %) by replacing 50% of the media with drug supplemented media and incubation for 12 h. After this time, the MCTS were divided in three identical groups. The first group was strictly kept in the dark. The second group was exposed to a one-photon irradiation (500 nm, 10 J/cm^2) using a LED and the third group was exposed to a two-photon irradiation (800 nm, 10 J/cm^2) with a section interval of 5 μm using a LSM 880 (Carl Zeiss, Germany) laser scanning confocal microscope equipped with a Coherent Chameleon 2-Photon laser. After the irradiation, all groups were incubated additional 48 h. The ATP concertation was measured using a CellTiter-Glo 3D Cell Viability kit (Promega) by measuring the generated chemiluminescence with an infinite M200 PRO (Tecan) plate reader.

[7] = tested on: mouse colon carcinoma (CT-26) cells
[8] = Luminescence lifetime measurements; format: physicochemical; conditions: excitation at 355 nm; for τ/ns air (Lifetime): air saturated CH3CN; for τ/ns degassed (Lifetime): degassed CH3CN
Procedure: For the determination of the lifetimes, the samples were prepared in an air saturated and in a degassed CH3CN solution with an absorbance of 0.2 at 355 nm. This solution was irradiated in fluorescence quartz cuvettes (width 1 cm) using a NT342B Nd-YAG pumped optical parametric oscillator (Ekspla) at 355 nm. The emission signal was focused and collected at right angle to the excitation pathway and directed to a Princeton Instruments Acton SP-2300i monochromator. As a detector a R928 photomultiplier tube (Hamamatsu) has been used.

[9] = read-out: IC50 480 nm (10 min, 3.1 J/cm^2), U373, irradiation 480 nm (10 min, 3.1 J/cm^2)
[10] = read-out: IC50 dark, U373, dark, 4 h incubation
[11] = dark, 4 h incubation, compounds 1-3 as chloride salts, read-out: IC50 dark
[12] = read-out: IC50 480 nm (10 min, 3.1 J/cm^2), irradiation 480 nm (10 min, 3.1 J/cm^2), compounds 1-3 as chloride salts
[13] = read-out: IC50 540 nm (40 min, 9.5 J/cm^2), irradiation 540 nm (40 min, 9.5 J/cm^2), compounds 1-3 as chloride salts
[14] = 1-Photon irradiation (500 nm, 10 J/cm^2), read-out: IC50 1-Photon irradiation (500 nm, 10 J/cm^2)
[15] = 2-Photon irradiation (800 nm, 10 J/cm^2, section interval of 5 μm), read-out: IC50 2-Photon irradiation (800 nm, 10 J/cm^2)
[16] = dark, 12 h incubation, read-out: IC50 dark

Row | Compound | ϕem (Luminescence Quantum Yield) [1] | IC50 [2] [µM] | PI (480 nm) [3] | PI (540 nm) [3] | IC50 [3, 9] [µM] | IC50 [3, 10] [µM] | PI (480 nm) [4] | PI (540 nm) [4] | λem/nm (Emission maximum) [5] [nm] | PI (480 nm) [6] | PI (540 nm) [6] | IC50 [6, 11] [µM] | IC50 [6, 12] [µM] | IC50 [6, 13] [µM] | IC50 (HeLa MCTS; [14]) [µM] | IC50 (HeLa MCTS; [15]) [µM] | PI (1-Photon) (HeLa MCTS) | PI (2-Photon) (HeLa MCTS) | IC50 (HeLa MCTS; [16]) [µM] | IC50 [7] [µM] | other results
1 | CN(C)c1ccc(/C=C/c2ccnc(-c3cc(/C=C/c4ccc(N(C)C)cc4)ccn3)c2)cc1.F[P-](F)(F)(F)(F)F.F[P-](F)(F)(F)(F)F.[Ru+2].c1ccc(-c2ccccn2)nc1.c1ccc(-c2ccccn2)nc1 [Compound 6, [Ru(bipy)2((E,E′)-4,4′-Bis[p-(N,N-dimethylamino)styryl]-2,2′-bipyridine)][PF6]2] | 0.005 | 10.7 ± 1.9 | >12.0 | >9.3 | 8.3 ± 1.1 | > 100 | >13.7 | >12.3 | 697 | >18.9 | >17.2 | > 100 | 5.3 ± 0.6 | 5.8 ± 0.9 | 33.8 ± 3.4 | 26.5 ± 2.9 | >8.9 | >11.3 | > 300 | 2.4 ± 0.5 | τ/ns air (Lifetime) [8]: 54 ns; τ/ns degassed (Lifetime) [8]: 405 ns
2 | COc1ccc(/C=C/c2ccnc(-c3cc(/C=C/c4ccc(OC)cc4)ccn3)c2)cc1.F[P-](F)(F)(F)(F)F.F[P-](F)(F)(F)(F)F.[Ru+2].c1cnc2c(c1)ccc1cccnc12.c1cnc2c(c1)ccc1cccnc12 [Compound 9, [Ru(phen)2((E,E′)-4,4′-Bis[p-methoxystyryl]-2,2′-bipyridine)][PF6]2] | 0.019 | 2.1 ± 0.7 | >40.0 | >47.6 | 2.5 ± 0.9 | > 100 | >41.7 | >47.6 | 663 | >66.7 | >83.3 | > 100 | 1.5 ± 0.6 | 1.2 ± 0.7 | 7.5 ± 0.2 | 1.2 ± 0.3 | >40.0 | >250.0 | > 300 | 1.1 ± 0.5 | phototoxicity in HeLa MCTS (HeLa MCTS): much higher phototoxicity; τ/ns air (Lifetime) [8]: 193 ns; τ/ns degassed (Lifetime) [8]: 669 ns
3 | [Ru(bipy)2((E,E′)-4,4′-Bis[p-(N,N-methoxy)styryl]-2,2′-bipyridine)][PF6]2 [Compound 7] | 0.028 | 13.5 ± 1.6 | >9.5 | >7.4 | 10.5 ± 1.7 | > 100 | >32.3 | >11.9 | 664 | >83.3 | >66.7 | > 100 | 1.2 ± 0.4 | 1.5 ± 0.5 | 6.8 ± 0.2 | 1.4 ± 0.2 | >44.1 | >214.3 | > 300 | 0.7 ± 0.4 | phototoxicity in HeLa MCTS (HeLa MCTS): much higher phototoxicity; τ/ns degassed (Lifetime) [8]: 542 ns
